Experimental data reported in ChEMBL document CHEMBL3272088, “Stereochemical studies of adrenergic drugs. Diastereomeric 2-amino-1-phenylcyclobutanols” (1976).
The source made the active and inactive calls. The calls are words filed in the database; no cut-off is given here.

How the values were obtained:
Rattus norvegicus [1] = species: Rattus norvegicus; experiment: Potentiation of (-)-norepinephrine-induced tissue contraction in albino Sprague-Dawley rat reserpine-treated adrenergically innervated vas deferens at 3 x 10^-5 to 3 x 10^-4 M after 15 mins by isotonic myograph analysis; format: functional, tissue-based
Vas deferens [2] = experiment: Intrinsic activity of (-)-norepinephrine-induced tissue contraction in albino Sprague-Dawley rat reserpine-treated adrenergically innervated vas deferens after 15 mins by isotonic myograph analysis; format: functional, tissue-based
[3] = Induction of tissue contraction in albino Sprague-Dawley rat reserpine-treated adrenergically innervated vas deferens at 3 x 10^-7 M by isotonic myograph analysis; format: functional
Vas deferens [4] = experiment: Intrinsic activity of (-)-norepinephrine-induced tissue contraction in albino Sprague-Dawley rat reserpine-treated adrenergically innervated vas deferens at 3 x 10^-6 M after 15 mins by isotonic myograph analysis; format: functional
[5] = Potentiation of (-)-norepinephrine-induced tissue contraction in albino Sprague-Dawley rat reserpine-treated adrenergically innervated vas deferens at 3 x 10^-6 M after 15 mins by isotonic myograph analysis; format: functional
Vas deferens [6] = experiment: Intrinsic activity of (-)-norepinephrine-induced tissue contraction in albino Sprague-Dawley rat reserpine-treated adrenergically innervated vas deferens at 1 x 10^-5 to 3 x 10^-5 M after 15 mins by isotonic myograph analysis; format: functional, tissue-based
[7] = Potentiation of (-)-norepinephrine-induced tissue contraction in albino Sprague-Dawley rat reserpine-treated adrenergically innervated vas deferens at 3 x 10^-4 M after 15 mins by isotonic myograph analysis; format: functional
Rattus norvegicus [8] = species: Rattus norvegicus; experiment: Potentiation of (-)-norepinephrine-induced tissue contraction in albino Sprague-Dawley rat reserpine-treated adrenergically innervated vas deferens after 15 mins by isotonic myograph analysis; format: functional, tissue-based

Structure (SMILES): N[C@@H]1CC[C@]1(O)c1ccccc1
- Activity (Rattus norvegicus [1]): inactive
- Activity (Vas deferens [2]): inactive

Structure (SMILES): NCC(O)c1ccc(O)c(O)c1 (centres undefined)
- Activity [3]: 10%

Structure (SMILES): CC(N)C(O)c1ccccc1 (centres undefined) [PHENYLPROPANOLAMINE]
- Activity (Vas deferens [4]): <5%
- Activity [5]: 66%
- Activity (Vas deferens [6]): Active

Structure (SMILES): N[C@@H]1CC[C@@]1(O)c1ccccc1
- Activity [7]: 55%
- Activity (Rattus norvegicus [8]): Dose-dependent effect
- Activity (Vas deferens [2]): inactive
